From the supplement of paper PMC10307832

Tests used:
Test in all cases: relative viability (nuclei count vs DMSO), 5 days (fraction); higher = more cells survive
[1] = compound: CN1CCN(c2ccc3nc(-c4c(N)c5c(F)cccc5[nH]c4=O)[nH]c3c2)CC1 [Dovitinib] + Cc1nc(Nc2ncc(C(=O)Nc3c(C)cccc3Cl)s2)cc(N2CCN(CCO)CC2)n1 [Dasatinib] (partner 0.075 µM)
Procedure, shortened: (§1)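 After 5 days of treatment, lung cancer cells in 1536-well plates were fixed and stained in a single step (final 0.05% Triton X-100, 1% formaldehyde, 1 ug/ml Hoechst) and their nuclei counted on 4× images. Treatment had been applied by pin tool the day after seeding as one drug alone or as a fixed anchor-drug dose with five library-drug doses (not always all listed) in √10 steps. Relative viability is the nuclei count of treated wells divided by that of vehicle wells, and values are medians of duplicate plates.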

[2] = compound: CN1CCN(c2ccc3nc(-c4c(N)c5c(F)cccc5[nH]c4=O)[nH]c3c2)CC1 [Dovitinib] + Cc1nc(NC(=O)N2CCC[C@H]2C(N)=O)sc1-c1ccnc(C(C)(C)C(F)(F)F)c1 [Alpelisib] (partner 2 µM)
Procedure, shortened: as §1

[3] = compound: CN1CCN(c2ccc3nc(-c4c(N)c5c(F)cccc5[nH]c4=O)[nH]c3c2)CC1 [Dovitinib] + CC(C)C[C@H](NC(=O)[C@H](Cc1ccccc1)NC(=O)c1cnccn1)B(O)O [Bortezomib] (partner 0.002 µM)
Procedure, shortened: as §1

[4] = compound: CN1CCN(c2ccc3nc(-c4c(N)c5c(F)cccc5[nH]c4=O)[nH]c3c2)CC1 [Dovitinib] + CC(=O)c1c(C)c2cnc(Nc3ccc(N4CCNCC4)cn3)nc2n(C2CCCC2)c1=O [Palbociclib] (partner 0.5 µM)
Procedure, shortened: as §1

H3255 was tested, and the relative viability ([1]; first compound 0.02 µM) was 0.405, the relative viability ([1]; first compound 0.06325 µM) was 0.374 and the relative viability ([1]; first compound 0.2 µM) was 0.424. It also gave a relative viability ([1]; first compound 0.6325 µM) of 0.445, a relative viability ([1]; first compound 2 µM) of 0.369 and a relative viability ([2]; first compound 0.02 µM) of 0.785. It also gave a relative viability ([2]; first compound 0.06325 µM) of 0.655, a relative viability ([2]; first compound 0.2 µM) of 0.735 and a relative viability ([2]; first compound 0.6325 µM) of 0.8. It also gave a relative viability ([2]; first compound 2 µM) of 0.937, a relative viability ([3]; first compound 0.02 µM) of 0.773 and a relative viability ([3]; first compound 0.06325 µM) of 0.642. For the same cell line, the relative viability ([3]; first compound 0.2 µM) was 0.804, the relative viability ([3]; first compound 0.6325 µM) was 0.739 and the relative viability ([3]; first compound 2 µM) was 0.788. For the same cell line, the relative viability ([4]; first compound 0.02 µM) was 0.301, the relative viability ([4]; first compound 0.06325 µM) was 0.291 and the relative viability ([4]; first compound 0.2 µM) was 0.298. It also gave a relative viability ([4]; first compound 0.6325 µM) of 0.325 and a relative viability ([4]; first compound 2 µM) of 0.281.

Cell Line LXF-289 has a relative viability ([1]; first compound 0.02 µM) of 0.201, a relative viability ([1]; first compound 0.06325 µM) of 0.206 and a relative viability ([1]; first compound 0.2 µM) of 0.263. It also gave a relative viability ([1]; first compound 0.6325 µM) of 0.253, a relative viability ([1]; first compound 2 µM) of 0.266 and a relative viability ([2]; first compound 0.02 µM) of 1.01. It also gave a relative viability ([2]; first compound 0.06325 µM) of 1.02, a relative viability ([2]; first compound 0.2 µM) of 1.02 and a relative viability ([2]; first compound 0.6325 µM) of 1.03. It also gave a relative viability ([2]; first compound 2 µM) of 0.926, a relative viability ([3]; first compound 0.02 µM) of 0.924 and a relative viability ([3]; first compound 0.06325 µM) of 1. For the same cell line, the relative viability ([3]; first compound 0.2 µM) was 1.02, the relative viability ([3]; first compound 0.6325 µM) was 0.935 and the relative viability ([3]; first compound 2 µM) was 0.968. It also gave a relative viability ([4]; first compound 0.02 µM) of 0.577, a relative viability ([4]; first compound 0.06325 µM) of 0.604 and a relative viability ([4]; first compound 0.2 µM) of 0.621. The relative viability ([4]; first compound 0.6325 µM) was 0.598 and the relative viability ([4]; first compound 2 µM) was 0.566.

UMC-11 gave a relative viability ([1]; first compound 0.02 µM) of 0.423, a relative viability ([1]; first compound 0.06325 µM) of 0.481 and a relative viability ([1]; first compound 0.2 µM) of 0.492. For the same cell line, the relative viability ([1]; first compound 0.6325 µM) was 0.493, the relative viability ([1]; first compound 2 µM) was 0.492 and the relative viability ([2]; first compound 0.02 µM) was 0.958. For the same cell line, the relative viability ([2]; first compound 0.06325 µM) was 0.941, the relative viability ([2]; first compound 0.2 µM) was 0.892 and the relative viability ([2]; first compound 0.6325 µM) was 0.82. For the same cell line, the relative viability ([2]; first compound 2 µM) was 0.961, the relative viability ([3]; first compound 0.02 µM) was 0.77 and the relative viability ([3]; first compound 0.06325 µM) was 0.669. The relative viability ([3]; first compound 0.2 µM) was 0.881, the relative viability ([3]; first compound 0.6325 µM) was 0.81 and the relative viability ([3]; first compound 2 µM) was 0.668. The relative viability ([4]; first compound 0.02 µM) was 0.334, the relative viability ([4]; first compound 0.06325 µM) was 0.34 and the relative viability ([4]; first compound 0.2 µM) was 0.346. The relative viability ([4]; first compound 0.6325 µM) was 0.343 and the relative viability ([4]; first compound 2 µM) was 0.348.

LC-2-ad was tested, and the relative viability ([1]; first compound 0.02 µM) was 0.661, the relative viability ([1]; first compound 0.06325 µM) was 0.524 and the relative viability ([1]; first compound 0.2 µM) was 0.55. For the same cell line, the relative viability ([1]; first compound 0.6325 µM) was 0.514, the relative viability ([1]; first compound 2 µM) was 0.429 and the relative viability ([2]; first compound 0.02 µM) was 0.873. It also gave a relative viability ([2]; first compound 0.06325 µM) of 0.833, a relative viability ([2]; first compound 0.2 µM) of 0.728 and a relative viability ([2]; first compound 0.6325 µM) of 0.8. It also gave a relative viability ([2]; first compound 2 µM) of 0.74, a relative viability ([3]; first compound 0.02 µM) of 1.08 and a relative viability ([3]; first compound 0.06325 µM) of 0.983. The relative viability ([3]; first compound 0.2 µM) was 1.02, the relative viability ([3]; first compound 0.6325 µM) was 1.06 and the relative viability ([3]; first compound 2 µM) was 0.789. The relative viability ([4]; first compound 0.02 µM) was 0.484, the relative viability ([4]; first compound 0.06325 µM) was 0.449 and the relative viability ([4]; first compound 0.2 µM) was 0.472. For the same cell line, the relative viability ([4]; first compound 0.6325 µM) was 0.484 and the relative viability ([4]; first compound 2 µM) was 0.504.

A-427 showed a relative viability ([1]; first compound 0.02 µM) of 0.624, a relative viability ([1]; first compound 0.06325 µM) of 0.654 and a relative viability ([1]; first compound 0.2 µM) of 0.673. It also gave a relative viability ([1]; first compound 0.6325 µM) of 0.634, a relative viability ([1]; first compound 2 µM) of 0.698 and a relative viability ([2]; first compound 0.02 µM) of 0.979. The relative viability ([2]; first compound 0.06325 µM) was 1.03, the relative viability ([2]; first compound 0.2 µM) was 1.07 and the relative viability ([2]; first compound 0.6325 µM) was 0.938. For the same cell line, the relative viability ([2]; first compound 2 µM) was 1.03, the relative viability ([3]; first compound 0.02 µM) was 0.87 and the relative viability ([3]; first compound 0.06325 µM) was 0.909. It also gave a relative viability ([3]; first compound 0.2 µM) of 0.953, a relative viability ([3]; first compound 0.6325 µM) of 0.93 and a relative viability ([3]; first compound 2 µM) of 1.03. For the same cell line, the relative viability ([4]; first compound 0.02 µM) was 0.502, the relative viability ([4]; first compound 0.06325 µM) was 0.517 and the relative viability ([4]; first compound 0.2 µM) was 0.553. For the same cell line, the relative viability ([4]; first compound 0.6325 µM) was 0.521 and the relative viability ([4]; first compound 2 µM) was 0.587.

Cell Line NCI-H322M has a relative viability ([1]; first compound 0.02 µM) of 0.24, a relative viability ([1]; first compound 0.06325 µM) of 0.263 and a relative viability ([1]; first compound 0.2 µM) of 0.243. The relative viability ([1]; first compound 0.6325 µM) was 0.249, the relative viability ([1]; first compound 2 µM) was 0.284 and the relative viability ([2]; first compound 0.02 µM) was 0.84. For the same cell line, the relative viability ([2]; first compound 0.06325 µM) was 0.774, the relative viability ([2]; first compound 0.2 µM) was 0.792 and the relative viability ([2]; first compound 0.6325 µM) was 0.809. The relative viability ([2]; first compound 2 µM) was 0.776, the relative viability ([3]; first compound 0.02 µM) was 1.21 and the relative viability ([3]; first compound 0.06325 µM) was 1.21. For the same cell line, the relative viability ([3]; first compound 0.2 µM) was 1.19, the relative viability ([3]; first compound 0.6325 µM) was 1.12 and the relative viability ([3]; first compound 2 µM) was 1.16. It also gave a relative viability ([4]; first compound 0.02 µM) of 0.46, a relative viability ([4]; first compound 0.06325 µM) of 0.471 and a relative viability ([4]; first compound 0.2 µM) of 0.468. It also gave a relative viability ([4]; first compound 0.6325 µM) of 0.482 and a relative viability ([4]; first compound 2 µM) of 0.487.

HCC-366 showed a relative viability ([1]; first compound 0.02 µM) of 0.687, a relative viability ([1]; first compound 0.06325 µM) of 0.604 and a relative viability ([1]; first compound 0.2 µM) of 0.648. For the same cell line, the relative viability ([1]; first compound 0.6325 µM) was 0.616, the relative viability ([1]; first compound 2 µM) was 0.618 and the relative viability ([2]; first compound 0.02 µM) was 0.545. For the same cell line, the relative viability ([2]; first compound 0.06325 µM) was 0.393, the relative viability ([2]; first compound 0.2 µM) was 0.478 and the relative viability ([2]; first compound 0.6325 µM) was 0.505. For the same cell line, the relative viability ([2]; first compound 2 µM) was 0.446, the relative viability ([3]; first compound 0.02 µM) was 1.08 and the relative viability ([3]; first compound 0.06325 µM) was 1.06. It also gave a relative viability ([3]; first compound 0.2 µM) of 0.987, a relative viability ([3]; first compound 0.6325 µM) of 1.06 and a relative viability ([3]; first compound 2 µM) of 0.999. The relative viability ([4]; first compound 0.02 µM) was 0.377, the relative viability ([4]; first compound 0.06325 µM) was 0.364 and the relative viability ([4]; first compound 0.2 µM) was 0.372. The relative viability ([4]; first compound 0.6325 µM) was 0.396 and the relative viability ([4]; first compound 2 µM) was 0.402.

Cell Line NCI-H1975 has a relative viability ([1]; first compound 0.02 µM) of 0.346, a relative viability ([1]; first compound 0.06325 µM) of 0.348 and a relative viability ([1]; first compound 0.2 µM) of 0.408. The relative viability ([1]; first compound 0.6325 µM) was 0.364, the relative viability ([1]; first compound 2 µM) was 0.453 and the relative viability ([2]; first compound 0.02 µM) was 0.625. It also gave a relative viability ([2]; first compound 0.06325 µM) of 0.685, a relative viability ([2]; first compound 0.2 µM) of 0.603 and a relative viability ([2]; first compound 0.6325 µM) of 0.604. The relative viability ([2]; first compound 2 µM) was 0.547, the relative viability ([3]; first compound 0.02 µM) was 0.389 and the relative viability ([3]; first compound 0.06325 µM) was 0.48. It also gave a relative viability ([3]; first compound 0.2 µM) of 0.377, a relative viability ([3]; first compound 0.6325 µM) of 0.373 and a relative viability ([3]; first compound 2 µM) of 0.405. For the same cell line, the relative viability ([4]; first compound 0.02 µM) was 0.657, the relative viability ([4]; first compound 0.06325 µM) was 0.674 and the relative viability ([4]; first compound 0.2 µM) was 0.58. The relative viability ([4]; first compound 0.6325 µM) was 0.645 and the relative viability ([4]; first compound 2 µM) was 0.598.
